Results reported in US20070032477A1, “Pteridine derivatives useful for making pharmaceutical compositions” (priority 2003, published 2007).

What was measured:
[1] = system: production of TNF-α by PBMC in response to stimulation by LPS; assay: TNF-α assay; format: cell-based, human; details: LPS 1 μg/ml, 72 hours, sandwich ELISA
Procedure: Peripheral blood mononuclear cells (herein referred as PBMC), in response to stimulation by lipopolysaccharide (hereinafter LPS), a gram-negative bacterial endotoxin, produce various […], in particular human TNF-α. Inhibition of the activation of PBMC can therefore be measured by the level of suppression of the production of TNF-α by PBMC in response to stimulation by LPS.
Such inhibition measurement was performed as follows: PBMC were isolated from heparinized peripheral blood by density gradient centrifugation over Lymphoprep (commercially available from Nycomed, Norway). LPS was then added to the PMBC suspension in complete medium (10^6 cells/ml) at a final concentration of 1 μg/ml. The pteridine derivative to be tested was added at different concentrations (0.1 μM, 1 μM and 10 μM) and the cells were incubated at 37° C. for 72 hours in 5% CO2. The supernatants were collected, then TNF-α concentrations were measured with respectively an anti-TNF-α antibody in a sandwich ELISA (Duo Set ELISA human TNFα, commercially available from R&D Systems, United Kingdom). The calorimetric reading of the ELISA was measured by a Multiskan RC plate reader (commercially available from ThermoLabsystems, Finland) at 450 nm (reference wavelength: 690 nm). Data analysis was performed with Ascent software 2.6. (also from ThermoLabsystems, Finland): a standard curve (recombinant human TNFα) was drawn and the amount (pg/ml) of each sample on the standard curve was determined.
The % suppression of human TNFα production by the pteridine derivatives of the invention (drugs) was calculated using the formula: [formula]

[2] = system: mixed lymphocyte reaction (PBMC with allogeneic PBMC or Eppstein-Barr Virus-transformed human B cells as stimulator cells); assay: Mixed lymphocyte reaction (MLR) assay; format: cell-based; details: lowest concentration giving 50% suppression of the MLR; [3H]-thymidine
Procedure: Pteridine derivatives were first dissolved (10 mM) in dimethylsulfoxide (hereinafter referred as DMSO) and further diluted in culture medium before use for the following in vitro experiments. The commercially available culture medium consisted of RPMI-1640+10% foetal calf serum (FCS). Some pteridine derivatives described in the previous examples (as indicated in table 1) were tested in the following mixed lymphocyte reaction (MLR) assay.
Peripheral blood mononuclear cells (hereinafter referred as PBMC) were isolated from heparinized peripheral blood by density gradient centrifugation over Lymphoprep (Nycomed, Maorstua, Norway). Allogeneic PBMC or Eppstein-Barr Virus-transformed human B cells [commercially available under the trade name RPM11788 (ATCC name CCL156)] which strongly express B7-1 and B7-2 antigens were used as stimulator cells after irradiation with 30 Gy. MLR was performed in triplicate wells. After 5 days incubation at 37° C., 1 μCi [^3H]-thymidine was added to each cup. After a further 16 hours incubation, cells were harvested and counted in a […]. Inhibition of proliferation by a compound (drug) described in some of the previous examples was counted using the formula: [formula] wherein cpm is the thymidine count per minute. The MLR assay is regarded by those skilled in the art as an in vitro analogue of the transplant rejection since it is based on the recognition of allogeneic major histocompatibility antigens on the stimulator leukocytes, by responding lymphocytes.

| SMILES | IC50 [1] [nM] | IC50 [2] [nM] |
| --- | --- | --- |
| COc1ccc(-c2cnc3nc(N)nc(N4CCN(C(=O)C5CCCCC5)CC4)c3n2)cc1OC [Example 30, 2-amino-4-[(N-cyclohexylcarbonyl)-piperazin-1-yl]-6-(3,4-dimethoxy-phenyl)pteridine] | 300 | 100 |
| COc1ccc(-c2cnc3nc(N)nc(N4CCN(C(=S)Oc5ccccc5)CC4)c3n2)cc1OC [Example 51, 2-amino-4-[(N-phenoxythiocarbonyl)-piperazin-1-yl]-6-(3,4-dimethoxy-phenyl)pteridine] | 40 | 300 |
| COc1cccc(C(=O)N2CCN(c3nc(N)nc4ncc(-c5ccc(OC)c(OC)c5)nc34)CC2)c1 [Example 26, 2-amino-4-[N-(3-methoxybenzoyl)piperazin-1-yl]-6-(3,4-dimethoxy-phenyl)pteridine] | 500 | 500 |
| COc1ccc(-c2cnc3nc(N)nc(N4CCN(c5ccncc5)CC4)c3n2)cc1OC [Example 145, 2-amino-4-((4-pyridyl)-piperazin-1-yl)-6-(3,4-dimethoxyphenyl)pteridine] | 4400 | 3500 |
| COc1ccc(-c2cnc3nc(N)nc(N4CCN(C(=O)Oc5ccc(C)cc5)CC4)c3n2)cc1OC [Example 90, 2-amino-4-[(N-4-methyl-phenoxy-carbonyl)-piperazin-1-yl]-6-(3,4-dimethoxyphenyl)pteridine] | 40 | 58 |
| COc1ccc(-c2cnc3nc(N)nc(N4CCN(C(=O)N5CCCC5)CC4)c3n2)cc1OC [Example 38, 2-amino-4-[(N-1-pyrrolidinylcarbonyl)-piperazin-1-yl]-6-(3,4-dimethoxy-phenyl)pteridine] | 60 | 300 |
| CCC(=O)N1CCN(c2nc(N)nc3ncc(-c4ccc(OC)c(OC)c4)nc23)CC1 [Example 9, 2-amino-4-[(N-propionyl)-piperazin-1-yl]-6-(3,4-dimethoxyphenyl)pteridine] | 140 | 500 |
| COc1ccc(-c2cnc3nc(N)nc(N4CCN(C(=O)[C@@H](N)Cc5ccccc5)CC4)c3n2)cc1OC [Example 60, 2-amino-4-[N-(2-(S)-amino-3-phenylpropionyl)-piperazin-1-yl]-6-(3,4-dimethoxy-phenyl)pteridine] | 2500 | 4100 |
| CCOC(=O)C(C)N1CCN(c2nc(N)nc3ncc(-c4ccc(OC)c(OC)c4)nc23)CC1 (stereo not shown) [Example 133, 2-amino-4-(2-(piperazin-1-yl)-propionic acid ethyl ester)-6-(3,4-dimethoxyphenyl)pteridine] | 330 | 1200 |
| COc1ccc(-c2cnc3nc(N)nc(N4CCN(CCN(C(C)C)C(C)C)CC4)c3n2)cc1OC [Example 128, 2-amino-4-(1-(2-diisopropylaminoethyl)-piperazino)-6-(3,4-dimethoxyphenyl)pteridine] | 3300 | 7400 |
| COc1ccc(-c2cnc3nc(N)nc(N4CCN(C(=O)CN5CCOCC5)CC4)c3n2)cc1OC [Example 130, 2-amino-4-(4-[2-(piperazin-1-yl)-acetyl]-morpholino)-6-(3,4-dimethoxy-phenyl)pteridine] | 1400 | 1500 |
| COc1ccc(-c2cnc3nc(N)nc(N4CCN(C(=O)Nc5ccccc5)CC4)c3n2)cc1OC [Example 99, 2-amino-4-(N-phenyl-carbamoyl-piperazin-1-yl)-6-(3,4-dimethoxyphenyl)pteridine] | 90 | 3.4 |
| CCCCNC(=O)N1CCN(c2nc(N)nc3ncc(-c4ccc(OC)c(OC)c4)nc23)CC1 [Example 109, 2-amino-4-[(N-butyl-carbamoyl-piperazin-1-yl)]-6-(3,4-dimethoxyphenyl)pteridine] | 400 | 100 |
| COc1ccc(-c2cnc3nc(N)nc(N4CCN(C(=O)c5ccccc5OC)CC4)c3n2)cc1OC [Example 42, 2-amino-4-[N-(2-methoxybenzoyl)-piperazin-1-yl]-6-(3,4-dimethoxy-phenyl)pteridine] | 100 | 400 |
| CCN(CC)C(=O)N1CCN(c2nc(N)nc3ncc(-c4ccc(OC)c(OC)c4)nc23)CC1 [Example 14, 2-amino-4-[(N-diethylcarbamoyl)-piperazin-1-yl]-6-(3,4-dimethoxy-phenyl)pteridine] | 60 | 200 |
| COc1ccc(-c2cnc3nc(N)nc(N4CCN(CC5CCCN(C)C5)CC4)c3n2)cc1OC (stereo not shown) [Example 179, 2-amino-6-(3,4-dimethoxyphenyl)-4-(1-(1-methyl-piperidin-3-yl-methyl)-piperazin-1-yl)pteridine] | 1800 | 7900 |
| COc1ccc(-c2cnc3nc(N)nc(N4CCN(Cc5ccccc5F)CC4)c3n2)cc1OC [Example 141, 2-amino-4-((2-fluorobenzyl)piperazin-1-yl)-6-(3,4-dimethoxyphenyl)pteridine] | 200 | 700 |
| COc1ccc(-c2cnc3nc(N)nc(N4CCN(C(=O)c5ccc(C#N)cc5)CC4)c3n2)cc1OC [Example 16, 2-amino-4-[N-(4-cyanobenzoyl)-piperazin-1-yl]-6-(3,4-dimethoxyphenyl)pteridine] | 550 | 800 |
| COc1ccc(-c2cnc3nc(N)nc(N4CCN(C(=O)Nc5cccc(Cl)c5)CC4)c3n2)cc1OC [Example 193, 2-amino-4-(N-3-chloro-phenyl-carbamoyl-piperazin-1-yl)-6-(3,4-dimethoxyphenyl)pteridine] | 500 | 36 |
| COc1ccc(-c2cnc3nc(N)nc(N4CCN(C(=O)Cc5ccc(Cl)cc5)CC4)c3n2)cc1OC [Example 45, 2-amino-4-[N-(4-chlorophenylacetyl)-piperazin-1-yl]-6-(3,4-dimethoxy-phenyl)pteridine] | 400 | 90 |
| COc1ccc(-c2cnc3nc(N)nc(N4CCCN(C(=O)COc5ccccc5)CC4)c3n2)cc1OC [Example 89] | 1200 | 87 |
| COc1ccc(-c2cnc3nc(N)nc(N4CCN(C(=O)Nc5cccc(C(F)(F)F)c5)CC4)c3n2)cc1OC [Example 195, 2-amino-4-(N-3-trifluoromethyl-phenyl-carbamoyl-piperazin-1-yl)-6-(3,4-dimethoxyphenyl)pteridine] | 700 | 36 |
| COc1ccc(-c2cnc3nc(N)nc(N4CCN(C(=O)N(C)c5ccc(C)cc5)CC4)c3n2)cc1OC [Example 119, 2-amino-4-(N-methyl-N-tolyl-carbamoyl-piperazin-1-yl)-6-(3,4-dimethoxyphenyl)pteridine] | 260 | 300 |
| COc1ccc(-c2cnc3nc(N)nc(N4CCN(CCN5CCOCC5)CC4)c3n2)cc1OC [Example 129, 2-amino-4-(1-(2-morpholino4-yl-ethyl)-piperazino)-6-(3,4-dimethoxyphenyl)pteridine] | 800 | 2500 |
| COc1ccc(-c2cnc3nc(N)nc(N4CCN(C(=O)c5ccco5)CC4)c3n2)cc1OC [Example 27, 2-amino-4-[N-(2-furoyl)-piperazin-1-yl]-6-(3,4-dimethoxyphenyl)pteridine] | 500 | 80 |
| COc1ccc(-c2cnc3nc(N)nc(N4CCN(c5cc(Cl)cc(Cl)c5)CC4)c3n2)cc1OC [Example 171, 2-amino-4-((3,5-dichlorophenyl)-piperazin-1-yl)-6-(3,4-dimethoxyphenyl)pteridine] | 500 | 3400 |
| COc1ccc(-c2cnc3nc(N)nc(N4CCN(Cc5ccccn5)CC4)c3n2)cc1OC [Example 177, 2-amino-6-(3,4-dimethoxyphenyl)-4-((2-pyridyl)methyl-piperazin-1-yl)pteridine] | 90 | 800 |
| COc1ccc(-c2cnc3nc(N)nc(N4CCN(C(=O)Nc5cccc(C)c5)CC4)c3n2)cc1OC [Example 103, 2-amino-4-(N-3-methylphenylcarbamoyl-piperazin-1-yl)-6-(3,4-dimethoxyphenyl)pteridine] | 100 | 6.5 |
| COc1ccc(-c2cnc3nc(N)nc(N4CCN(CC(C)C)CC4)c3n2)cc1OC [Example 168, 2-amino-6-(3,4-dimethoxyphenyl)-4-(1-isobutyl-piperazin-1-yl)pteridine] | 90 | 1600 |
